In this assay the test system is male rat. Kind of assay: Onset of diarrhea due to intragastric administration of an elemental diet in fasted rats (stool state ranked 1-4). Format: in vivo. The source says:
According to a conventional method, under pentobarbital anesthesia, a catheter for elemental diet administration was inserted by operation in the stomach of a male rat (body weight about 270 g), and a recovery period of one week was given. For breeding, a regular rat feed and tap water were given, and free intake was allowed. After confirmation of recovery, the rat was fasted three nights to induce lower gastrointestinal function. The fasting schedule on the day before operation, the operation day and the day after operation in the case of surgery patients was imitated.
On the day of the test, the rats were divided into 3 groups, each rat was moved to a separate observation cage, and the onset of diarrhea due to the administration of an elemental diet shown below was observed. First, one pack (80 g) of elemental diet having the composition shown in Table 1 was dissolved in water (300 cc) and prepared to show 1 kcal/cc, which was used as elemental diet 1. Three groups of an elemental diet 1 administration group as a control, an elemental diet 2 administration group, to which 1.0 w/v % (0.88 w/v % as free glutamic acid) of sodium glutamate (MSG) was added, and an elemental diet 3 administration group, to which sodium chloride (0.35 w/v %) was added, were compared. Each test elemental diet was administered using an electric pump via the catheter inserted into the stomach. The administration was started from 10:30 AM and intermittently administered 4 times per hr at 7 mL/hr. Each test elemental diet administered to one rat was 28 mL in total. The state of stool was observed from the start of the administration until 10:30 AM the next morning and, based on the severity of the symptom, ranked in 4 levels of 1. normal stool or no stool, 2, soft stool (shape was maintained), 3, muddy stool (no shape) and 4, watery stool.
A method according to Example 1 was employed. […] Each test elemental diet was administered using an electric pump via the catheter inserted into the stomach.
A method according to Example 1 was employed. Three groups of an elemental diet 1 administration group having the composition shown in a separate table as a control, an elemental diet 6 administration group, to which 0.04 w/v % (0.036 w/v % as free guanylic acid) of sodium guanylate (GMP) was added, and an elemental diet 7 administration group, to which 0.20 w/v % (0.18 w/v % as free guanylic acid) was added, were compared. Each test elemental diet was administered using an electric pump via the catheter inserted into the stomach.

Setting [1] is: Example 1, elemental diet 3 with 0.35 w/v % sodium chloride, out of 11 cases.
The mark [2] stands for this setting: Example 3, elemental diet 6 with 0.04 w/v % sodium guanylate, out of 13 cases.
Setting [3] is: Example 3, elemental diet 7 with 0.20 w/v % sodium guanylate, out of 13 cases.

The structures appear in SMILES notation.

Take `N[C@@H](CCC(=O)[O-])C(=O)[O-].[Na+].[Na+]` [sodium glutamate]: the “improvement of diarrhea (stool rank) vs non-addition group” value (Example 1, 1.0 w/v % sodium glutamate, Kruskal-Wallis, p<0.05) was “significant improvement effect”. In addition, where the note is “po”, the “rank 2 soft stool observed” value came out at 1 case and the “rank 3 muddy stool observed” value was found to be 2 cases.

With `[Cl-].[Na+]` [sodium chloride, reference compound], under setting [1], the “rank 1 observed” value is 1 case and the “rank 3 observed” value was 6 cases.

Turning to `Nc1nc2c(ncn2[C@@H]2O[C@H](COP(=O)([O-])[O-])[C@@H](O)[C@H]2O)c(=O)[nH]1.[Na+].[Na+]` [sodium guanylate], the “rank 1 normal stool or no stool observed” value was 3 cases (Example 3, elemental diet 6 with 0.04 w/v % sodium guanylate (0.036 w/v % as free guanylic acid), out of 13 cases) and 3 cases (Example 3, elemental diet 7 with 0.20 w/v % sodium guanylate (0.18 w/v % as free guanylic acid), out of 13 cases). The “rank 2 soft stool observed” value reads like this: under setting [2], 1 case; under setting [3], 1 case. Besides, the “rank 4 watery stool observed” value under setting [2] stood at 9 cases and the “rank 4 watery stool observed” value under setting [3] came out at 9 cases. For the setting “Example 3, sodium guanylate 0.04 and 0.20 w/v % addition groups vs non-addition group”, the “diarrhea symptom-improving effect by the addition” value is on record as “diarrhea symptom-improving effect was considered to be observed”.

The values above are taken from patent publication US7993668B2, “Nutrient composition and composition for prevention/mitigation of digestive tract depression” (Ajinomoto Co., Inc., priority 2004, dated 2011).
